Assay [1] addresses T1, AnAtg4 (Aspergillus niger ATG4) (Aspergillus niger, UniProt A2QY50).
T1 construct: 6xHis-AnAtg4
T1 sequence (A2QY50 1-404): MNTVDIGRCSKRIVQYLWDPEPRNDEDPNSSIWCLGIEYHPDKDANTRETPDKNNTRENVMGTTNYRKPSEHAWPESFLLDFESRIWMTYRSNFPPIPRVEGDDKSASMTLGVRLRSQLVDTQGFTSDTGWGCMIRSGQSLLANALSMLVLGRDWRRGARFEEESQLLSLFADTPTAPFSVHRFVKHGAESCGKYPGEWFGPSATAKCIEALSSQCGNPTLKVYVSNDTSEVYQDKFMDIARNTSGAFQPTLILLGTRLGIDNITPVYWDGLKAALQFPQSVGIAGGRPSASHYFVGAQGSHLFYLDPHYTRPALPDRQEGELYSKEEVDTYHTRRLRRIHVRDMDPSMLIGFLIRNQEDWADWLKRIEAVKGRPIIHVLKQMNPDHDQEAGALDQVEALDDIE
The assay can be described thus: in vitro cleavage of AnAtg8 sensor by purified AnAtg4 at […] compound (immunoblot). The format is biochemical. Background: A western blot detects proteins with antibodies after separation by electrophoresis.

Assay [2] deals with T2, CnAtg4T (truncated Cryptococcus neoformans ATG4) (Cryptococcus neoformans, UniProt J9VN57).
T2 construct: gene CNAG_02662; CnAtg4T, 6xHis, truncated version excluding the disordered N-terminus, retaining the catalytic triad Cys563/Asp782/His784
T2 sequence (J9VN57 entry or part of it): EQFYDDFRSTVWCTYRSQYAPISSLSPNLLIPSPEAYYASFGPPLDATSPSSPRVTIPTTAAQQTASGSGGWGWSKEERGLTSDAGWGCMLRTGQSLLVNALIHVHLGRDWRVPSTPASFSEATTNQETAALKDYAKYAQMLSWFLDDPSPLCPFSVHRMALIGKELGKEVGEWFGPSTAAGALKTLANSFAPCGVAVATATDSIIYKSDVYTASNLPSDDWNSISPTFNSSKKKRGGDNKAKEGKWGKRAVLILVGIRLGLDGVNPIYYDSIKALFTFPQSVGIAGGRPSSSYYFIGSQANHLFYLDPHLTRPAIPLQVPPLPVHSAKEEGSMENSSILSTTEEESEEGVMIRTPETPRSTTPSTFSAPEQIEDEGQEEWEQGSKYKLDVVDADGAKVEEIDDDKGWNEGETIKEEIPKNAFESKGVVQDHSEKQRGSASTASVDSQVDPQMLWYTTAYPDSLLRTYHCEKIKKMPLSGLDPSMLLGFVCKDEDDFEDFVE
The assay can be described thus: in vitro cleavage of CnAtg8 sensor by purified CnAtg4T (immunoblot) and BRET. The format is biochemical.

For assay [3], the target named is T2, CnAtg4T (truncated Cryptococcus neoformans ATG4). The assay can be described thus: microscale thermophoresis with labelled purified CnAtg4T; also in vitro cleavage assay (IC50 […]) and BRET. The format is binding.

Consider `O=C1c2ccccc2[Se](=O)N1c1ccccc1` (stereo not drawn) [EO, ebselen oxide], for which the “in vitro cleavage of AnAtg8 sensor by purified AnAtg4 at 10 μM compound (immunob)” value (“in vitro cleavage of AnAtg8 sensor” below) in assay [1] is “the inhibitors exhibited comparable inhibitory effects on the ATG8 maturation catalyzed by AfAtg4 and AnAtg4 (Fig. 2D)”. For the same molecule, the IC50 (as a rule, the concentration at which inhibition is half-maximal) in assay [2] was determined as 4.8 µM.
`O=c1c2ccccc2[se]n1-c1ccccc1` [EB, Ebselen]: in assay [3], the Kd (usually the equilibrium constant for the complex coming apart) was 0.7 ± 0.32 µM. Moreover, the “in vitro cleavage of AnAtg8 sensor” value in assay [1] is “the inhibitors exhibited comparable inhibitory effects on the ATG8 maturation catalyzed by AfAtg4 and AnAtg4 (Fig. 2D)”.
Regarding `Cc1ccc(-n2sc3ccccc3c2=O)cc1` [PT, 2-(4-methylphenyl)-1,2-benzisothiazol-3(2H)-one], in assay [1], the “in vitro cleavage of AnAtg8 sensor” value was “the inhibitors exhibited comparable inhibitory effects on the ATG8 maturation catalyzed by AfAtg4 and AnAtg4 (Fig. 2D)”. Besides, half-maximal inhibition in assay [2] (IC50) required 8.44 µM.

The values are drawn from paper PMC12723477, “Evaluating the Antifungal Potential of Autophagy-Related Protein 4 (ATG4) Inhibitors against Human Fungal Pathogens” (Journal of Microbiology and Biotechnology, 2025).
